Laboratory results taken from patent US20250332300A1 (priority 2024, published 2025).
Counter-ions that a name gives are not always drawn. Like-named read-outs stand apart in the source and are kept apart here. Positions of bridges follow the written chain, without caps; N, C: chain ends. Non-standard residues stand in square brackets, D forms with d. Residues, ends and D or L forms follow the SMILES beside them. Trp(5-OH) = N[C@@H](Cc1c[nH]c2ccc(O)cc12)C(=O)O; NMePhe(4-F) = CN[C@@H](Cc1ccc(F)cc1)C(=O)O; NMeAoc(2) = CCCCCC[C@H](NC)C(=O)O; Aad = N[C@@H](CCCC(=O)O)C(=O)O; Gly(cPr) = N[C@H](C(=O)O)C1CC1; NMeK = CN[C@@H](CCCCN)C(=O)O; NMeDap = CN[C@@H](CN)C(=O)O

Experiments:
Assay type in all cases: binding
human HER2 (23-652) = human HER2 (23-652) (Homo sapiens, UniProt P04626); experiment: Surface plasmon resonance (SPR) for assessment of peptide affinity, human HER2; design: towards human HER2 (23-652) and mouse HER2 (23-653); made in house
Outline: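 Binding kinetics fitted from sensorgrams with 280 s peptide association then 3000 s dissociation (30 uL/min), using HER2 (23-652) either directly immobilized (SA/CM5) or anti-Fc-captured; 3 M magnesium chloride used for regeneration.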

mouse HER2 (23-653) [1] = target: T1, mouse HER2 (23-653) (Mus musculus, UniProt P70424); experiment: TR-FRET competition assay for peptide potency, mouse HER2; design: mouse HER2 (23-653) using a Cy5 labeled peptide as a probe; made in house; host or cells: mammalian cells; conditions: 0.1 nM mouse HER2, 24 h incubation
mouse HER2 (23-653) [2] = target: T1, mouse HER2 (23-653); experiment: Surface plasmon resonance (SPR) for assessment of peptide affinity, mouse HER2; design: mouse HER2 (23-653) using a Cy5 labeled peptide as a probe; made in house
Text: Each protein was immobilized either onto a SA sensorchip (Cytiva, BR-1005-31) or CM5 sensorchip (Cytiva, BR-1005-30) to a density of 800-2000 RU.

[3] = moHER2 TR-FRET IC50, TR-FRET competition with Cy5 labeled peptide probe
[4] = SPR, human HER2 extracellular domain, 25° C., 1:1 binding model, read-out: huHER2-SPR-ONC KD
[5] = TR-FRET competition with Cy5 labeled peptide probe, read-out: moHER2 TR-FRET IC50
[6] = SPR, mouse HER2 extracellular domain, 25° C., 1:1 binding model, read-out: moHER2-SPR-ONC KD

IC50 (mouse HER2 (23-653) [1]; [5]) [µM] | Compound | Kd (human HER2 (23-652)) [µM] | IC50 (mouse HER2 (23-653) [1]; [3]) [µM] | Kd (mouse HER2 (23-653) [2]) [µM] | Kd (human HER2 (23-652); [4]) [µM] | Kd (mouse HER2 (23-653) [2]; [6]) [µM]
 | CN1C(=O)[C@H](CO)NC(=O)[C@H](Cc2ccc(O)cc2)NC(=O)[C@@H](N)CCC(=O)NC[C@@H](C(=O)N(C)[C@@H](Cc2ccc(F)cc2)C(N)=O)N(C)C(=O)[C@H](C2CC2)NC(=O)[C@H](Cc2c[nH]c3ccccc23)NC(=O)[C@H](Cc2c[nH]c3ccc(O)cc23)NC(=O)[C@H](CCCCNC(=O)C(F)(F)F)N(C)C(=O)[C@@H]1CCc1ccccc1 [Example A33, (3S,6S,9S,12S,15S,18S,21S,24S,27S)-9-((1H-indol-3-yl)methyl)-27-amino-N-((S)-1-amino-3-(4-fluorophenyl)-1-oxopropan-2-yl)-6-cyclopropyl-12-((5-hydroxy-1H-indol-3-yl)methyl)-24-(4-hydroxybenzyl)-21-(hydroxymethyl)-N,4,16,19-tetramethyl-5,8,11,14,17,20,23,26,30-nonaoxo-18-phenethyl-15-(4-(2,2,2-trifluoroacetamido)butyl)-1,4,7,10,13,16,19,22,25-nonaazacyclotriacontane-3-carboxamide TFA salt] | 0.015 | 0.032 | 0.023 |  | 
0.013 | CC(=O)N[C@H]1CCCC(=O)NC[C@@H](C(=O)N(C)[C@@H](Cc2ccc(F)cc2)C(=O)N2CCC[C@H]2C(N)=O)N(C)C(=O)[C@H](C2CC2)NC(=O)[C@H](Cc2c[nH]c3ccccc23)NC(=O)[C@H](Cc2c[nH]c3ccc(O)cc23)NC(=O)[C@H](CO)N(C)C(=O)[C@H](CCc2ccccc2)N(C)C(=O)[C@H](CO)NC(=O)[C@H](Cc2ccc(O)cc2)NC1=O [Example A26, (3S,6S,9S,12S,15S,18S,21S,24S,27S)-9-((1H-indol-3-yl)methyl)-27-acetamido-N-((S)-1-((S)-2-carbamoylpyrrolidin-1-yl)-3-(4-fluorophenyl)-1-oxopropan-2-yl)-6-cyclopropyl-12-((5-hydroxy-1H-indol-3-yl)methyl)-24-(4-hydroxybenzyl)-15,21-bis(hydroxymethyl)-N,4,16,19-tetramethyl-5,8,11,14,17,20,23,26,31-nonaoxo-18-phenethyl-1,4,7,10,13,16,19,22,25-nonaazacyclohentriacontane-3-carboxamide] |  |  |  | 0.011 | 0.0084
 | CC(=O)N[C@H]1CCCC(=O)NC[C@@H](C(=O)N(C)[C@@H](Cc2ccc(F)cc2)C(=O)N[C@@H](CCCCNC(=O)CN2CCN(CC(=O)O)CCN(CC(=O)O)CCN(CC(=O)O)CC2)C(N)=O)N(C)C(=O)[C@H]([C@H](C)O)NC(=O)[C@H](Cc2c[nH]c3ccccc23)NC(=O)[C@H](Cc2c[nH]c3ccc(O)cc23)NC(=O)[C@H](CCCCNC(=O)CO)N(C)C(=O)[C@H](CCc2ccccc2)N(C)C(=O)[C@H](CO)NC(=O)[C@H](Cc2ccc(O)cc2)NC1=O [Example C21] |  |  |  | 0.0003 | 0.0007
0.067 | CC(=O)N[C@H]1CCC(=O)NC[C@@H](C(=O)N(C)[C@@H](Cc2ccc(F)cc2)C(=O)N2CCC[C@H]2C(N)=O)N(C)C(=O)[C@H](C2CC2)NC(=O)[C@H](Cc2c[nH]c3ccccc23)NC(=O)[C@H](Cc2c[nH]c3ccc(O)cc23)NC(=O)[C@H](CO)N(C)C(=O)[C@H](CCc2ccccc2)N(C)C(=O)[C@H](CO)NC(=O)[C@H](Cc2ccc(O)cc2)NC1=O [Example A30, (3S,6S,9S,12S,15S,18S,21S,24S,27S)-9-((1H-indol-3-yl)methyl)-27-acetamido-N-((S)-1-((S)-2-carbamoylpyrrolidin-1-yl)-3-(4-fluorophenyl)-1-oxopropan-2-yl)-6-cyclopropyl-12-((5-hydroxy-1H-indol-3-yl)methyl)-24-(4-hydroxybenzyl)-15,21-bis(hydroxymethyl)-N,4,16,19-tetramethyl-5,8,11,14,17,20,23,26,30-nonaoxo-18-phenethyl-1,4,7,10,13,16,19,22,25-nonaazacyclotriacontane-3-carboxamide] |  |  |  | 0.031 | 0.03
0.0047 | CCCCCC[C@H]1C(=O)N(C)[C@@H](CCCCNC(C)=O)C(=O)N[C@@H](Cc2c[nH]c3ccc(O)cc23)C(=O)N[C@@H](Cc2c[nH]c3ccccc23)C(=O)N[C@@H](C2CC2)C(=O)N(C)[C@H](C(=O)N(C)[C@@H](Cc2ccc(F)cc2)C(N)=O)CNC(=O)CCC[C@H](NC(C)=O)C(=O)N[C@@H](Cc2ccc(O)cc2)C(=O)N[C@@H](CO)C(=O)N1C [Example A20, (3S,6S,9S,12S,15S,18S,21S,24S,27S)-9-((1H-indol-3-yl)methyl)-27-acetamido-15-(4-acetamidobutyl)-N-((S)-1-amino-3-(4-fluorophenyl)-1-oxopropan-2-yl)-6-cyclopropyl-18-hexyl-12-((5-hydroxy-1H-indol-3-yl)methyl)-24-(4-hydroxybenzyl)-21-(hydroxymethyl)-N,4,16,19-tetramethyl-5,8,11,14,17,20,23,26,31-nonaoxo-1,4,7,10,13,16,19,22,25-nonaazacyclohentriacontane-3-carboxamide] (Ac-[Aad]YS[NMeAoc(2)][NMeK](Ac)[Trp(5-OH)]W[Gly(cPr)][NMeDap][NMePhe(4-F)]-NH2; lactam 1-9) |  |  |  |  | 0.0025
 | COCCOCCOCCOCCOCCOCCOCCOCCOCCOCCOCCOCCC(=O)N[C@H]1CCCC(=O)NC[C@@H](C(=O)N(C)[C@@H](Cc2ccc(F)cc2)C(=O)N[C@@H](CCCCNC(=O)CN2CCN(CC(=O)O)CCN(CC(=O)O)CCN(CC(=O)O)CC2)C(N)=O)N(C)C(=O)[C@H](C2CC2)NC(=O)[C@H](Cc2c[nH]c3ccccc23)NC(=O)[C@H](Cc2c[nH]c3ccc(O)cc23)NC(=O)[C@H](CCCCNC(C)=O)N(C)C(=O)[C@H](CCc2ccccc2)N(C)C(=O)[C@H](CO)NC(=O)[C@H](Cc2ccc(O)cc2)NC1=O [Example C2] |  |  |  |  | 0.0002
0.057 | CC(=O)NCCCC[C@H]1C(=O)N[C@@H](Cc2c[nH]c3ccc(O)cc23)C(=O)N[C@@H](Cc2c[nH]c3ccccc23)C(=O)N[C@@H]([C@H](C)O)C(=O)N(C)[C@H](C(=O)N(C)[C@@H](Cc2ccc(F)cc2)C(=O)N[C@@H](CCCCNC(=O)N2CCN(CC(=O)O)CC2)C(N)=O)CNC(=O)CC[C@H](NC(=O)CN2CCN(CC(=O)O)CCN(CC(=O)O)CCN(CC(=O)O)CC2)C(=O)N[C@@H](Cc2ccc(O)cc2)C(=O)N[C@@H](CO)C(=O)N(C)[C@@H](CCc2ccccc2)C(=O)N1C [Example C27] |  |  |  |  | 0.054
 | CC(=O)NCCCC[C@H]1C(=O)N[C@@H](Cc2c[nH]c3ccc(O)cc23)C(=O)N[C@@H](Cc2c[nH]c3ccccc23)C(=O)N[C@@H](C2CC2)C(=O)N(C)[C@H](C(=O)N(C)[C@@H](Cc2ccc(F)cc2)C(=O)N[C@@H](CCCCNC(=O)CC[C@H](C(=O)O)N2CCN(CC(=O)O)CCN(CC(=O)O)CCN(CC(=O)O)CC2)C(N)=O)CNC(=O)CCC[C@H](NC(C)=O)C(=O)N[C@@H](Cc2ccc(O)cc2)C(=O)N[C@@H](CO)C(=O)N(C)[C@@H](CCc2ccccc2)C(=O)N1C [Example C33] |  |  |  |  | < 0.0001
 | CC(=O)NCCCC[C@H]1C(=O)N[C@@H](Cc2c[nH]c3ccc(O)cc23)C(=O)N[C@@H](Cc2c[nH]c3ccccc23)C(=O)N[C@@H](C2CC2)C(=O)N(C)[C@H](C(=O)N(C)[C@@H](Cc2ccc(F)cc2)C(N)=O)CNC(=O)CC[C@H](N)C(=O)N[C@@H](Cc2ccc(O)cc2)C(=O)N[C@@H](CO)C(=O)N(C)[C@@H](CCc2ccccc2)C(=O)N1C [Example A32, (3S,6S,9S,12S,15S,18S,21S,24S,27S)-9-((1H-indol-3-yl)methyl)-15-(4-acetamidobutyl)-27-amino-N-((S)-1-amino-3-(4-fluorophenyl)-1-oxopropan-2-yl)-6-cyclopropyl-12-((5-hydroxy-1H-indol-3-yl)methyl)-24-(4-hydroxybenzyl)-21-(hydroxymethyl)-N,4,16,19-tetramethyl-5,8,11,14,17,20,23,26,30-nonaoxo-18-phenethyl-1,4,7,10,13,16,19,22,25-nonaazacyclotriacontane-3-carboxamide TFA salt] |  | 0.0026 | 0.0022 |  | 

Compound | IC50 (mouse HER2 (23-653) [1]; [5]) [µM] | Kd (human HER2 (23-652)) [µM] | IC50 (mouse HER2 (23-653) [1]; [3]) [µM] | Kd (mouse HER2 (23-653) [2]) [µM] | Kd (human HER2 (23-652); [4]) [µM] | Kd (mouse HER2 (23-653) [2]; [6]) [µM]
CC(=O)NCCCC[C@H]1C(=O)N[C@@H](Cc2c[nH]c3ccc(O)cc23)C(=O)N[C@@H](Cc2c[nH]c3ccccc23)C(=O)N[C@@H](C2CC2)C(=O)N(C)[C@H](C(=O)N(C)[C@@H](Cc2ccc(F)cc2)C(=O)N[C@@H](CCCCNC(=O)CN2CCN(CC(=O)O)CCN(CC(=O)O)CCN(CC(=O)O)CC2)C(N)=O)CNC(=O)CCC[C@H](NC(C)=O)C(=O)N[C@H](Cc2ccc(O)cc2)C(=O)N[C@H](CO)C(=O)N(C)[C@@H](CCc2ccccc2)C(=O)N1C [Example C36] | 0.396 |  |  |  | 0.107 | 0.472
